{"source": "patent US10420770B2", "about": "“Compositions and methods for treating dementia” (EIP Pharma, LLC, priority 2016, dated 2019)", "key": {"amyloid plaque load": {"system": "amyloid plaque load", "assay": "Quantitative dynamic [11C]PiB PET amyloid scanning (RPM2-BPND), 12-week study", "assay_type": "in vivo, human", "conditions": "for Number of Responders/Total Number in Population, PET metric Cingulate Posterior / Number of Responders/Total Number in Population, PET metric Frontal / Number of Responders/Total Number in Population, PET metric Global / Number of Responders/Total Number in Population, PET metric Med Temp Lobe / Number of Responders/Total Number in Population, PET metric Parietal / Number of Responders/Total Number in Population, PET metric Temporal: responder = reduction of ≥7% in RPM2-BPND", "experimental": "(§1) Dosing started on Day 1 following completion of all baseline procedures. During the treatment period, subjects returned to the clinic on Days 14, 28, 56, and 84. […] Dynamic PET scanning with fill quantitative analysis was performed at baseline and at the end of treatment.\nTarget engagement was assessed through the use of an AD-related biomarker. The primary endpoint was based on assessment of amyloid plaque burden using quantitative dynamic PET amyloid scanning (Tolboom, N. et al. “Test-retest variability of quantitative [^11C]PIB studies in Alzheimer's disease.” Eur. J. Nucl. Med. Mol. Imaging 36(10): 1629-1638 (2009)). The method of van Berckel et al (van Berckel B N, R. Ossenkoppele, et al. “Longitudinal amyloid imaging using ^11CPiB: Methodologic considerations.” J. Nucl. Med. 5=1; 1570-1576 (2013)) was followed, in which dynamic emission scanning consists of 23 frames with progressive increases in frame duration (1·15, 3·5, 3·10, 2·30, 3·60, 2·150, 2·300, and 7·600 s) for a total scan duration of 90 min; and subsequently full quantitative data analysis of the images was performed by reference parametric mapping (RPM2) using cerebellum as reference tissue. This methodology allowed for a more reliable (i.e. less variable) assessment of brain amyloid plaque load than standard amyloid PET imaging. In addition this method of measuring amyloid burden has high scan-to-scan stability (˜2-3% test-test variability) within subjects. No placebo group was enrolled. Instead, reductions in brain amyloid plaque load of greater than 7%, which is definitively outside the range of test-test variability, were considered to be a drug effect in this study."}, "brain metabolism": {"system": "brain metabolism", "assay": "Brain FDG PET scan, 6-week study", "assay_type": "in vivo, human", "conditions": "baseline to day 40", "experimental": "(§2) Quantitative EEG was conducted as a measure of the effects of inflammatory cytokines on synaptic function and the effects of modulation of p38 MAPK on synaptic plasticity. Brain fluorodeoxyglucose (FDG) PET scan was conducted at the Screening Visit and Day 40 to measure brain metabolism. In addition, CSF drug levels of VX-745 were obtained to confirm delivery of drug to the brain."}, "butylcholinesterase": {"system": "butylcholinesterase", "assay": "CSF butylcholinesterase, 6-week study", "assay_type": "in vivo, human", "conditions": "baseline to day 40"}, "[1]": {"assay": "Safety and tolerability, 6-week Phase IIa study (Example 2)", "assay_type": "in vivo, human", "conditions": "6 weeks", "experimental": "(§3) Investigators and patients were blinded to the dosage strength. The first 3 patients were randomly assigned to receive either 40 or 125 mg twice daily, with dosing level blinded. The remaining patients (up to 7 patients) received 40 mg twice daily on an open-label basis. […] Patients were instructed to eat a meal approximately 30 minutes before dosing with VX 745 with each dose taken approximately 12 hours (+/−3 hours) apart at the same times each day throughout the study."}, "[2]": {"system": "brain-derived neurotrophic factor (BDNF)", "assay": "Plasma BDNF levels by Somascan, 12-week study", "assay_type": "in vivo, human", "conditions": "baseline vs after 84 days; n=10 subjects", "experimental": "FIG. 15 depicts plasma brain-derived neurotrophic, factor (BDNF) levels at baseline and after 84 days (n=10 subjects). BDNF levels were measured by Somascan®."}, "[3]": {"assay": "Plasma and CSF pharmacokinetics, 6-week Phase IIa study (Example 2)", "assay_type": "in vivo, human", "experimental": "as §3, §2"}, "[4]": {"assay": "Brain versus blood exposure in animals (preclinical PK)", "assay_type": "in vivo", "conditions": "brain relative to peripheral blood, read-out: exposure in the brains of animals relative to peripheral blood"}, "[5]": {"system": "patients with mild cognitive impairment (MCI) due to Alzheimer's disease (AD) or with mild AD", "assay": "MMSE, 6-week study (Example 2)", "assay_type": "in vivo, human", "conditions": "baseline vs day 40; no statistical analyses", "source_text": "The MMSE is a questionnaire used extensively in clinical and research settings to measure mental function. It is commonly used to screen for dementia, and to assess the severity and progression of dementia. The MMSE is an effective way to document a human subject's response to treatment. The test examines functions including registration, attention and calculation, recall, language, ability to follow simple commands and orientation.\nSubjects were men and women between 60-85 years old, having a confirmed diagnosis of MCI due to AD or mild AD (consistent with National Institute of Aging and Alzheimer's Association research diagnostic guidelines) and a Mini-Mental State Examination (MMSE) score greater than 20. Inclusion criteria included gradual and progressive decline in memory function reported by patients or informants over more than 6 months; an amnestic presentation on formal neuropsychological testing that was characterized by a pattern of rapid forgetting, as determined by the PI/subinvestigator; evidence of functional decline as evidenced by a CDR sum of box score of ≥0.5; and MMSE score of 17 to 30, inclusive. […] A total of 9 subjects were enrolled and all were included in safety analysis; 8 subjects completed 6 weeks treatment and were included in pharmacodynamics analysis. […]"}, "[6]": {"assay": "Plasma pharmacokinetics, 12-week Phase IIa study (Example 1)", "assay_type": "in vivo, human", "conditions": "40 mg dose level, twice daily, 12-week study", "experimental": "Investigators and patients were blind to the dosage strength. […] Patients were instructed to take doses within 30 minutes following a meal or snack, with each dose taken approximately 12 hours apart at the same times each day throughout the study.\nas §1\nSixteen subjects completed the full 12 weeks of treatment and all were included in safety analyses. […] In the PK analysis, due to the sparse sampling collection design, the time period from 0 to 24 hours post-dose was divided into 4 blocks in order to show the distribution of concentrations over time. […] Average blood concentration of about 8 ng/mL at the 40 mg dose level was observed. This is higher than the 5 ng/mL."}}, "note": "Values joined by “and” are separate entries in the source; they are usually repeats but may differ in a detail not shown here. Equal entries are not always repeated."}
{"smiles": "O=c1ncn2nc(Sc3ccc(F)cc3F)ccc2c1-c1c(Cl)cccc1Cl", "note": "[VX-745]", "values": [{"measurement": "subjects between 3 and 7% (% change RPM2_BPND)", "setting": "amyloid plaque load; 40 mg", "result": 2}, {"measurement": "subjects who reached the 7% responder criterion (% change RPM2_BPND)", "setting": "amyloid plaque load; 40 mg", "result": 3}, {"measurement": "Number of Responders/Total Number in Population, PET metric Cingulate Posterior", "setting": "amyloid plaque load; 40 mg twice daily 12 weeks", "result": "2/8"}, {"measurement": "Number of Responders/Total Number in Population, PET metric Frontal", "setting": "amyloid plaque load; 40 mg twice daily 12 weeks", "result": "3/8"}, {"measurement": "Number of Responders/Total Number in Population, PET metric Global", "setting": "amyloid plaque load; 40 mg twice daily 12 weeks", "result": "3/8"}, {"measurement": "Number of Responders/Total Number in Population, PET metric Med Temp Lobe", "setting": "amyloid plaque load; 40 mg twice daily 12 weeks", "result": "4/8"}, {"measurement": "Number of Responders/Total Number in Population, PET metric Parietal", "setting": "amyloid plaque load; 40 mg twice daily 12 weeks", "result": "3/8"}, {"measurement": "Number of Responders/Total Number in Population, PET metric Temporal", "setting": "amyloid plaque load; 40 mg twice daily 12 weeks", "result": "2/8"}, {"measurement": "Number of Responders/Total Number in Population, PET metric Cingulate Posterior", "setting": "amyloid plaque load; 125 mg twice daily 12 weeks", "result": "0/7"}, {"measurement": "Number of Responders/Total Number in Population, PET metric Frontal", "setting": "amyloid plaque load; 125 mg twice daily 12 weeks", "result": "1/7"}, {"measurement": "Number of Responders/Total Number in Population, PET metric Global", "setting": "amyloid plaque load; 125 mg twice daily 12 weeks", "result": "1/7"}, {"measurement": "Number of Responders/Total Number in Population, PET metric Med Temp Lobe", "setting": "amyloid plaque load; 125 mg twice daily 12 weeks", "result": "2/7"}, {"measurement": "Number of Responders/Total Number in Population, PET metric Parietal", "setting": "amyloid plaque load; 125 mg twice daily 12 weeks", "result": "0/7"}, {"measurement": "Number of Responders/Total Number in Population, PET metric Temporal", "setting": "amyloid plaque load; 125 mg twice daily 12 weeks", "result": "1/7"}, {"measurement": "Percentage reduction in global cortical RPM2-BPND, individual responders", "setting": "amyloid plaque load; 3 responders in the 40 mg dose group, 12 weeks", "result": "−11.6% and −11.9% and −40.5%"}, {"measurement": "Number of Responders/Total Number in Population, PET metric Cingulate Posterior", "setting": "amyloid plaque load; All, 12 weeks", "result": "2/15"}, {"measurement": "Number of Responders/Total Number in Population, PET metric Frontal", "setting": "amyloid plaque load; All, 12 weeks", "result": "4/15"}, {"measurement": "Number of Responders/Total Number in Population, PET metric Global", "setting": "amyloid plaque load; All, 12 weeks", "result": "4/15"}, {"measurement": "Number of Responders/Total Number in Population, PET metric Med Temp Lobe", "setting": "amyloid plaque load; All, 12 weeks", "result": "6/15"}, {"measurement": "Number of Responders/Total Number in Population, PET metric Parietal", "setting": "amyloid plaque load; All, 12 weeks", "result": "3/15"}, {"measurement": "Number of Responders/Total Number in Population, PET metric Temporal", "setting": "amyloid plaque load; All, 12 weeks", "result": "3/15"}, {"measurement": "Percentage reduction in global cortical RPM2-BPND, individual responder", "setting": "amyloid plaque load; one responder in the 125 mg dose group, 12 weeks", "result": "−7.7", "unit": "%"}, {"measurement": "FDG-PET", "setting": "brain metabolism", "result": "no change"}, {"measurement": "CSF levels of butylcholinesterase", "setting": "butylcholinesterase", "result": "no change"}, {"measurement": "tolerability", "setting": "[1]; 40 mg or 125 mg twice daily", "result": "well-tolerated"}, {"measurement": "safety concerns", "setting": "[1]", "result": "No safety concerns were identified"}, {"measurement": "safety laboratory and 12-lead ECG parameters", "setting": "[1]", "result": "no treatment-related or clinically relevant trends"}, {"measurement": "Most common adverse events", "setting": "[1]; 9 subjects", "result": "mild dizziness, headache, and somnolence reported in 2 subjects each"}, {"measurement": "plasma BDNF levels", "setting": "[2]", "result": "increases plasma BDNF levels"}, {"measurement": "average blood drug concentration (CAVG)", "setting": "[3]; 40 mg twice daily", "result": 8, "unit": "ng/mL"}, {"measurement": "expected VX-745 concentrations in the brain", "setting": "[3]; extrapolated from CSF/plasma and preclinical data", "result": "~14 ng/mL and ~30 nM"}, {"measurement": "Kp", "setting": "[3]; human, CSF relative to plasma, oral, same time point, read-out: CSF drug levels as share of plasma drug levels", "result": 0.06}, {"measurement": "half-life", "setting": "[3]; human, oral, 6-week study plasma PK, read-out: terminal half-life (converted)", "result": 10, "unit": "h"}, {"measurement": "Cmax", "setting": "[3]; human, plasma, oral, 40 mg twice daily", "result": 23, "unit": "ng/mL"}, {"measurement": "Kp", "setting": "[4]", "result": "~1.7"}, {"measurement": "MMSE individual subject scores", "setting": "[5]", "result": "overall trends are encouraging"}, {"measurement": "Average blood concentration", "setting": "[6]", "result": "about 8 ng/mL"}]}
